According to US20120004282A1, “RNA Interference Mediated Inhibition of the Intercellular Adhesion Molecule 1 (ICAM-1) Gene Expression Using Short Interfering Nucleic Acid (siNA)” (Merck Sharp & Dohme Corp,, priority 2009, published 2012):
[invAb] = inverted abasic unit; m = 2'-O-methyl; r = 2'-OH (RNA); f = 2'-fluoro

Test system: ICAM-1 mRNA
Assay: ICAM-1 mRNA knock-down in transfected Calu-1 cells (Taqman RT-PCR)
Type: cell-based, human
Settings: for % KD Human: Calu-1 cells, 10 nM siNA, 24 hrs post-transfection, relative to non-targeting control; for % KD Human / % KD ICAM-1 10 nM / % KD at 10 nM / Max % KD in DRC: mean ± S.D.; for IC50: ICAM-1 mRNA knockdown, 12 concentrations 0.083 fM to 30 nM; for IC50 / % KD at 10 nM / Max % KD in DRC: human cells; for % KD ICAM-1 10 nM / % KD at 10 nM / Max % KD in DRC: ICAM-1 mRNA; for % KD ICAM-1 10 nM: three independent experiments; for % KD at 10 nM: three separate experiments; for Max % KD in DRC: dose response 0.083 fM to 30 nM

| Substance | % KD Human [%] | IC50 [pM] | % KD ICAM-1 10 nM [%] | % KD at 10 nM [%] | Max % KD in DRC [%] |
| --- | --- | --- | --- | --- | --- |
| 29284-DC: siNA duplex, ICAM-1 target site 1141 (h); sense B cucAGucAGuGuGAccGcA TTB; antisense UGCGGucAcAcuGAcuGAGUU (sense CUCAGUCAGUGUGACCGCATT; antisense UGCGGUCACACUGACUGAGUU; sense: DNA at AGT, 2'-fluoro at CU, [invAb] at 5' end, 3' end, backbone not given here; antisense: sugars from the 5' end rrrmmffmfmffmmffmmmmm, backbone not given here) | 85 ± 1 | 281 ± 233 | 85 ± 1 | 85 ± 1 | 73 ± 4 |
| 29285-DC: siNA duplex, ICAM-1 target site 537 (h); sense B GGAAcAAccGGAAGGuGuA TTB; antisense UACAccuuccGGuuGuuccUU (sense GGAACAACCGGAAGGUGUATT; antisense UACACCUUCCGGUUGUUCCUU; sense: DNA at AGT, 2'-fluoro at CU, [invAb] at 5' end, 3' end, backbone not given here; antisense: sugars from the 5' end rrrmffffffmmffmffffmm, backbone not given here) | 85 ± 6 | 394 | 85 ± 6 | 85 ± 6 | 70 ± 15 |
| 48722-DC: siNA duplex, ICAM-1 target site 2240 (h); sense B GAcAuAcAAcuGGGAAAuA TTB; antisense UAUuucccAGuuGuAuGucUU (sense GACAUACAACUGGGAAAUATT; antisense UAUUUCCCAGUUGUAUGUCUU; sense: DNA at AGT, 2'-fluoro at CU, [invAb] at 5' end, 3' end, backbone not given here; antisense: sugars from the 5' end rrrfffffmmffmfmfmffmm, backbone not given here) | 92 ± 1 | 98 ± 50 | 92 ± 1 | 92 ± 1 | 85 ± 1 |
| 29288-DC: siNA duplex, ICAM-1 target site 2046 (h); sense B cAuuGuccucAGucAGAuA TTB; antisense UAUcuGAcuGAGGAcAAuGUU (sense CAUUGUCCUCAGUCAGAUATT; antisense UAUCUGACUGAGGACAAUGUU; sense: DNA at AGT, 2'-fluoro at CU, [invAb] at 5' end, 3' end, backbone not given here; antisense: sugars from the 5' end rrrffmmffmmmmrfmmfmmm, backbone not given here) | 86 ± 3 | 215 ± 129 | 86 ± 3 | 86 ± 3 | 78 ± 5 |
| 29282-DC: siNA duplex, ICAM-1 target site 2113 (h); sense B cGcAucuGAucuGuAGucA TTB; antisense UGAcuAcAGAucAGAuGcGUU (sense CGCAUCUGAUCUGUAGUCATT; antisense UGACUACAGAUCAGAUGCGUU; sense: DNA at AGT, 2'-fluoro at CU, [invAb] at 5' end, 3' end, backbone not given here; antisense: sugars from the 5' end rrrffmfmmmffmmmfmfmmm, backbone not given here) | 95 ± 2 | 86 ± 47 | 95 ± 2 | 95 ± 2 | 88 ± 4 |
| 29286-DC: siNA duplex, ICAM-1 target site 1838 (h); sense B cGGAAGAucAAGAAAuAcA TTB; antisense UGUAuuucuuGAucuuccGUU (sense CGGAAGAUCAAGAAAUACATT; antisense UGUAUUUCUUGAUCUUCCGUU; sense: DNA at AGT, 2'-fluoro at CU, [invAb] at 5' end, 3' end, backbone not given here; antisense: sugars from the 5' end rrrmffffffmmffffffmmm, backbone not given here) | 89 ± 3 | 433 ± 468 | 89 ± 3 | 89 ± 3 | 81 ± 6 |
